From paper PMC6982354, “Promising New Inhibitors of Tyrosyl-DNA Phosphodiesterase I (Tdp 1) Combining 4-Arylcoumarin and Monoterpenoid Moieties as Components of Complex Antitumor Therapy” (International Journal of Molecular Sciences, 2019)

Tests used:
Tdp1 = molecular target: T1, Tdp1 (Homo sapiens, UniProt Q9NUW8); experiment: Real-time detection of Tdp1 activity (FAM/BHQ1 oligonucleotide biosensor); type: biochemical; conditions: for IC50: Tdp1 inhibition, 6-point concentration response curve; for Tdp1 inhibitory activity (in words): compared with the other derivatives of the series
T1 construct: made in house
Method: A previously designed, real-time, hexadecameric oligonucleotide biosensor with 5(6)-carboxyfluorescein (FAM) at the 5′ end and fluorophore quencher BHQ1 (Black Hole Quencher-1) at the 3′-end was used to determine the inhibitory properties of the new compounds.
Real-Time Detection of Tdp1 Activity. The Tdp1 activity measurements were carried out as described. […] Tdp1 inhibition was calculated by comparing the rate of increase in fluorescence in the presence of the compound to that of DMSO control wells. IC50 values were determined using a 6-point concentration response curve. The data were imported into the MARS Data Analysis 2.0 program (BMG LABTECH), and the slope during the linear phase (here data from 0 to 7 min) was calculated.

Lewis carcinoma = experiment: Lifespan of mice with ascites variant of Lewis carcinoma; type: in vivo; conditions: for prolongation of life: monotherapy at selected doses (tpc 0.5 mg/kg or 3ba 120 mg/kg), unreliable, p > 0.05; for increase in lifespan: tpc + 3ba 120 mg/kg
Method: We then examined the effect of 3ba in combination with tpc on the lifespan of mice. C57BL/6 mice were intraperitoneally inoculated with the ascites variant of Lewis carcinoma. Group 1: control without treatment; group 2: tpc 0.5 mg/kg intraperitoneally; group 3: tpc and 3ba intraperitoneally 120 mg/kg; and group 4: 3ba 120 mg/kg only.
(§1) Lab animals. Thre-e to four-month-old male and female C57Bl/6 mice from the breeding colony of the Institute of Cytology and Genetics, SB RAS, were used in the study. The animals were kept on sawdust in plastic cages with 5–7 mice per cage, with free access to ground food (“Laboratorkorm”, Moskow, Russia) and tap water. All experiments were performed in accordance with protocols approved by the Animal Care and Use Committee of the Institute of Cytology and Genetics. Also, all experimental procedures were performed in accordance with the Directive 2010/63/EU for animal experiments.
(§2) Tumor models. The experimental tumor used was Lewis Lung Carcinoma (LLC) and Krebs-2. The animals were treated with tpc and the Tdp1 inhibitor 3ba two days after tumor transplantation. The tumor was transplanted into the muscles of the thigh by 0.2 million cells per mouse. Tpc (Sindan Pharma SRL, Romania) was administered intraperitoneally at a single dose of 0.5 mg/kg; Tdp1 inhibitor 3ba was administrated intraperitoneally at a single dose of 20, 40, or 80 mg/kg (for Krebs-2), or 120 mg/kg (for LLC) in 15% dimethyl sulfoxide (DMSO)–10% Tween-80 suspension in water (0.2 mL of suspension per mouse) simultaneously with tpc. Control mice were injected with a DMSO-Tween-80 mixture into the stomach.
(§3) Statistical analysis. The experimenter measuring and calculating the primary animal data (tumor size, lifespan) was blinded. After unblinding, the animal data were statistically processed using oneway ANOVA. Post-hoc testing was completed using Turkey’s Honestly Significant Difference (HSD). p < 0.05 was considered to be statistically significant. The statistical package […] version 12.5 was used for analysis. All results are expressed as mean ± SEM.

Krebs-2 carcinoma = experiment: Influence on antitumor effect of tpc, Krebs-2 ascites tumor model; type: in vivo, mice; conditions: for weight of the ascitic tumor: compared to only tpc
Method: A study of the influence of 3ba on the antitumor effect of tpc (topotecan) was performed using a murine Krebs-2 carcinoma model. An ascitic tumor model combines the advantages of in vitro and in vivo approaches in studying the cytotoxic effect of compounds, since ascitic cells grow in the context of the organism (in vivo), and the intraperitoneal administration of drug ensures its direct contact with tumor cells (in vitro). The experiments were performed using female C57BL/6 mice, which were injected intraperitoneally with 2 × 10^5 ascitic cells on day zero. The mice were divided into six groups of ten animals each.
as §1, §2, §3

[1] = molecular target: T2, human Tdp1 (residues 149-608) (Homo sapiens, UniProt Q9NUW8); experiment: Intrinsic tryptophan fluorescence quenching binding assay; conditions: Tdp1 10 µM, 20 mM Tris, 250 mM NaCl, pH 8; triplicate; read-out: dissociation constant (KD)
T2 construct: human Tdp1 (residues 149-608); made in house; host or cells: Escherichia coli BL21 (DE3)
Text: Derivatives of nopol were the most complex compounds to synthesize and purify. Therefore, they were excluded from further consideration. Since we previously obtained contradictory results in in vivo experiments with the myrtenol derivative 2 (unpublished data), in this work, we decided to focus on geraniol derivatives for the in vivo studies. […] In addition to the activity assay that we reported above, we wanted to confirm the interactions between compound 3ba and Tdp1 before progressing to in vivo studies. Using an intrinsic tryptophan fluorescence quenching assay that we previously applied to study the binding interactions of Tdp1 and its inhibitors, we evaluated the binding of compound 3ba to recombinant Tdp1. Clear quenching of the Tdp1 intrinsic fluorescence was observed upon the addition of 3ba (Supplementary Figure S1). […]
Binding Assay. […] Intrinsic protein fluorescence was measured using PerkinElmer EnSpire Multimode Reader. […] The excitation wavelength was 280 nm and the intrinsic fluorescence was measured at 350 nm. […] Dissociation constants (KD) were calculated using the following formula, that takes nonspecific binding into account. […]
In this formula, I indicates changes in fluorescence intensity from the titration, Imax indicates the maximum fluorescence intensity change, [Lᴛ] is the titration ligand concentration, and Ns is the non-specific term. […]

T1 sequence (Q9NUW8 whole entry): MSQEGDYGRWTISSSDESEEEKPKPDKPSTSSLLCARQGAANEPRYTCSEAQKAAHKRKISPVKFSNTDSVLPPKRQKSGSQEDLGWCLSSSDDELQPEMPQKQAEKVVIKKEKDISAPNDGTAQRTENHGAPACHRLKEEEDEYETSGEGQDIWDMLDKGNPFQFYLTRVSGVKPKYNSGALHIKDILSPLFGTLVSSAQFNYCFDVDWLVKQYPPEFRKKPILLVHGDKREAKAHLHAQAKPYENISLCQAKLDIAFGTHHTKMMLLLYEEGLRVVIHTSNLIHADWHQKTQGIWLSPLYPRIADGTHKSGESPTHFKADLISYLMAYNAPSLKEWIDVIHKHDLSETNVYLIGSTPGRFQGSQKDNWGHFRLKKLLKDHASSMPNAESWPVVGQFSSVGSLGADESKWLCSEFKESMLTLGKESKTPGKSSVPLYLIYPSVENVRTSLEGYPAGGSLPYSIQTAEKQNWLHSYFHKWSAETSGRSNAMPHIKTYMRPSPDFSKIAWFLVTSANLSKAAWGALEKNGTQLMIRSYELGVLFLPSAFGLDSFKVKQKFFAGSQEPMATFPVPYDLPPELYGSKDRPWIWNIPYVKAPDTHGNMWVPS
T2 sequence (Q9NUW8 149-608): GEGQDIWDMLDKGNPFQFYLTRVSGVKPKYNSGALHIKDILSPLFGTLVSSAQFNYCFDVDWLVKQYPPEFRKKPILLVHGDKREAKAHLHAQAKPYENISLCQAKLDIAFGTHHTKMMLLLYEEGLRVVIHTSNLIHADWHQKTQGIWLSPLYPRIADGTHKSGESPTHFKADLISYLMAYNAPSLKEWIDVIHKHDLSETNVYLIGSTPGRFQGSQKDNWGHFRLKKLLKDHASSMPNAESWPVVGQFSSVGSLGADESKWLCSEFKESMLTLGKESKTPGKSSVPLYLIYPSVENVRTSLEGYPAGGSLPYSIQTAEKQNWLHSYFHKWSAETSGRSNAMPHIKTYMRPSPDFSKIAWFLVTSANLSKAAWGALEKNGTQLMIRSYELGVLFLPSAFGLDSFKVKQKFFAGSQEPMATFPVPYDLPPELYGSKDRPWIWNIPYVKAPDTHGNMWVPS

Compound | IC50 (Tdp1) [nM] | also measured
CC(C)=CCC/C(C)=C/COc1ccc2c(-c3ccccc3)cc(=O)oc2c1 [3aa, (E)-7-(3,7-Dimethylocta-2,6-dienyloxy)-4-phenyl-2H-chromen-2-one] | 490 ± 140 | 
CC1(C)[C@H]2CC=C(CCOc3ccc4c(-c5ccccc5)cc(=O)oc4c3)[C@@H]1C2 [3ab, 7-(2-((1R,5S)-6,6-Dimethylbicyclo[3 1.1]hept-2-en-2-yl)ethoxy)-4-phenyl-2H-chromen-2-one] | 410 ± 120 | 
CC1(C)[C@H]2CC=C(COc3ccc4c(-c5ccccc5)cc(=O)oc4c3)[C@@H]1C2 [3ac, 7-(((1R,5S)-6,6-Dimethylbicyclo[3.1.1]hept-2-en-2-yl)methoxy)-4-phenyl-2H-chromen-2-one] | 460 ± 160 | Tdp1 inhibitory activity (in words) (Tdp1): slightly less active
CC1(C)[C@@H]2CC=C(COc3ccc4c(-c5ccccc5)cc(=O)oc4c3)[C@H]1C2 [3ad, 7-(((1S,5R)-6,6-Dimethylbicyclo[3.1.1]hept-2-en-2-yl)methoxy)-4-phenyl-2H-chromen-2-one] | 480 ± 110 | 
CC(C)=CCC/C(C)=C/COc1ccc2c(-c3ccc(F)cc3)cc(=O)oc2c1 [3ba, (E)-7-(3,7-Dimethylocta-2,6-dienyloxy)-4-(4-fluorophenyl)-2H-chromen-2-one] | 620 | prolongation of life (Lewis carcinoma): 13–19%; increase in lifespan (Lewis carcinoma; compared with mice receiving only tpc, p = 0.0065): 26%; increase in lifespan (Lewis carcinoma; compared with the control group, p = 0.0002): 42%; weight of the ascitic tumor / tumor growth (Krebs-2 carcinoma; 3ba 20 mg/kg i.p. + tpc 0.5 mg/kg i.p. (group 5)): did not affect tumor growth; weight of the ascitic tumor (Krebs-2 carcinoma; 3ba 40 mg/kg i.p. + tpc 0.5 mg/kg i.p. (group 4)): decrease in ascites weight, although the difference between groups 2 and 4 was not significant; weight of the ascitic tumor (Krebs-2 carcinoma; 3ba 80 mg/kg i.p. + tpc 0.5 mg/kg i.p. (group 3)): significant decrease; weight of the ascitic tumor / tumor growth (Krebs-2 carcinoma; 3ba 80 mg/kg i.p. in the absence of tpc (group 6)): did not affect tumor growth; number of tumor cells in ascites (Krebs-2 carcinoma; tpc 0.5 mg/kg + 3ba 80 mg/kg i.p. (group 3), only one mouse gave ascitic fluid): 250 mln; Kd [1]: 63000 ± 11000 nM
CC1(C)[C@H]2CC=C(CCOc3ccc4c(-c5ccc(F)cc5)cc(=O)oc4c3)[C@@H]1C2 [3bb, 7-(2-((1R,5S)-6,6-Dimethylbicyclo[3.1.1]hept-2-en-2-yl)ethoxy)-4-(4-fluorophenyl)-2H-chromen-2-one] | 7500 ± 700 | Tdp1 inhibitory activity (in words) (Tdp1): markedly lower activity
CC1(C)[C@H]2CC=C(COc3ccc4c(-c5ccc(F)cc5)cc(=O)oc4c3)[C@@H]1C2 [3bc, 7-(((1R,5S)-6,6-Dimethylbicyclo[3.1.1]hept-2-en-2-yl)methoxy)-4-(4-fluorophenyl)-2H-chromen-2-one] | 990 ± 300 | 
CC[C@@]1(O)C(=O)OCc2c1cc1n(c2=O)Cc2cc3c(CN(C)C)c(O)ccc3nc2-1 [tpc, topotecan, reference compound] |  | prolongation of life (Lewis carcinoma): 13–19%; number of tumor cells in ascites (Krebs-2 carcinoma; tpc only, 0.5 mg/kg i.p. (group 2), control 1750 million per mouse): 950 mln

Continued, in another order:

IC50 (Tdp1) [nM] | Compound | also measured
1030 ± 580 | CC1(C)[C@@H]2CC=C(COc3ccc4c(-c5ccc(F)cc5)cc(=O)oc4c3)[C@H]1C2 [3bd, 7-(((1S,5R)-6,6-Dimethylbicyclo[3.1.1]hept-2-en-2-yl)methoxy)-4-(4-fluorophenyl)-2H-chromen-2-one] | 
900 ± 370 | CC(C)=CCC/C(C)=C/COc1ccc2c(-c3ccc(Br)cc3)cc(=O)oc2c1 [3ca, (E)-4-(4-Bromophenyl)-7-(3,7-dimethylocta-2,6-dienyloxy)-2H-chromen-2-one] | 
590 ± 70 | CC1(C)[C@H]2CC=C(CCOc3ccc4c(-c5ccc(Br)cc5)cc(=O)oc4c3)[C@@H]1C2 [3cb, 4-(4-Bromophenyl)-7-(2-((1R,5S)-6,6-dimethylbicyclo[3.1.1]hept-2-en-2-yl)ethoxy)-2H-chromen-2-one] | 
3230 ± 350 | CC1(C)[C@H]2CC=C(COc3ccc4c(-c5ccc(Br)cc5)cc(=O)oc4c3)[C@@H]1C2 [3cc, 4-(4-Bromophenyl)-7-(((1R,5S)-6,6-dimethylbicyclo[3.1.1]hept-2-en-2-yl)methoxy)-2H-chromen-2-one] | 
430 ± 50 | CC1(C)[C@@H]2CC=C(COc3ccc4c(-c5ccc(Br)cc5)cc(=O)oc4c3)[C@H]1C2 [3cd, 4-(4-Bromophenyl)-7-(((1S,5R)-6,6-dimethylbicyclo[3.1.1]hept-2-en-2-yl)methoxy)-2H-chromen-2-one] | 
910 ± 130 | COc1ccc(-c2cc(=O)oc3cc(OCCC4=CC[C@H]5C[C@@H]4C5(C)C)ccc23)cc1 [3db, 7-(2-((1R,5S)-6,6-Dimethylbicyclo[3.1.1]hept-2-en-2-yl)ethoxy)-4-(4-methoxyphenyl)-2H-chromen-2-one] | 
590 ± 150 | COc1ccc(-c2cc(=O)oc3cc(OCC4=CC[C@H]5C[C@@H]4C5(C)C)ccc23)cc1 [3dc, 7-(((1R,5S)-6,6-Dimethylbicyclo[3.1.1]hept-2-en-2-yl)methoxy)-4-(4-methoxyphenyl)-2H-chromen-2-one] | 
590 ± 60 | COc1ccc(-c2cc(=O)oc3cc(OCC4=CC[C@@H]5C[C@H]4C5(C)C)ccc23)cc1 [3dd, 7-(((1S,5R)-6,6-Dimethylbicyclo[3.1.1]hept-2-en-2-yl)methoxy)-4-(4-methoxyphenyl)-2H-chromen-2-one] | 
2400 ± 800 | O=c1cc(-c2ccc(Br)cc2)c2ccc(OCc3ccccc3)cc2o1 [10c, 7-(Benzyloxy)-4-(4-bromophenyl)-2H-chromen-2-one] | 
3310 ± 980 | COc1ccc(-c2cc(=O)oc3cc(OCc4ccccc4)ccc23)cc1 [10d, 7-(Benzyloxy)-4-(4-methoxyphenyl)-2H-chromen-2-one] | 
